Test [1] deals with Karpas-299 cells. Put plainly: Cellular toxicity test (2), CellTiter-Glo. In kind it is cell-based, human. The note with it: for Cell remaining rate (%): 0.25 μM solution added 50 μL per well, 4 days, relative to addition of no compound; for cellular toxicity (in words): summary of Test Example 2. How it is done: Karpas-299 cells (European Collection of Authenticated Cell Cultures, hereinafter, ECACC), which are CD30 antigen-expressing cell lines and human lymphoma cell lines, were cultured in RPMI 1640 (GIBCO) containing 10% fetal bovine serum (MP Biomedicals) (hereinafter, referred to as “culture medium A” in this test). Karpas-299 cells were prepared to be 2×10^6 cells/mL in culture medium A, and were added to a 96 well microplate for cell culturing in an amount of 50 μL for each well. Each compounds prepared to be in a concentration of 0.25 μM with culture medium A was added to the microplate in an amount of 50 μL for each well, and culture was carried out at 37° C. under 5% CO2 for 4 days. After culturing, the microplate was taken out from the incubator, and was left at rest at room temperature for 10 minutes. To each well, 50 μL of CellTiter-Glo Luminescent Cell Viability Assay (Promega) was added, and the resultant mixture was stirred. This mixture was incubated at a dark place for 20 minutes, and luminescence was measured by using a microplate luminometer, thereby determining the percentage of the number of cells remaining after treatment with each compound to the number of cells remaining after treatment with addition of no compound.

The next test concerns the target T1, porcine tubulin (Sus scrofa, UniProt P02550+P02554).
T1 construct: purchased Cytoskeleton Inc. BK006P
As to the kind of experiment: Activity for inhibiting microtubule polymerization using porcine tubulins. In kind it is biochemical. The note with it: for Microtubule polymerization rate (%): at 9.1 μM, 60 minutes after assay initiation, absorbance at 340 nm, 37° C.; for activity for inhibiting microtubule polymerization (in words): summary of Test Example 3. On the procedure:
Using a tubulin polymerization inhibition assay kit (catalog number: BK006P) purchased from Cytoskeleton Inc., the polymerization inhibitory activity of compounds of Examples was evaluated in accordance with the protocol appended to the kit. To a 96 well microplate, 80 mM PIPES pH 6.9, 2 mM MgCl, 0.5 mM EGTA and 5% DMSO buffered solution of the compound to be evaluated was added in an amount of 10 μL for each well, and to these wells, 3 mg/mL porcine tubulin 80 mM PIPES pH 6.9, 2 mM MgCl, 0.5 mM EGTA, 1 mM GTP and 10.2% glycerol solution was added in an amount of 100 μL for each well. In order to examine a state in which tubulins polymerize over time, the absorbance at 340 nm was measured at 37° C., using a microplate reader. As the polymerization of tubulins progresses, the absorbance at 340 nm rises.
The tubulin polymerization inhibitory activity was evaluated based on the proportion of polymerized tubulins 60 minutes after the assay initiation. Specifically, the microtubule polymerization rate (%) was calculated by dividing the absorbance of tubulins that had polymerized at wells to which the compound had been added by the absorbance of tubulins that had polymerized at wells to which the compound had not been added, and multiplying the obtained value by 100.

In test [2] the test system is Karpas-299 cells. Put plainly: Cellular toxicity test (1), CellTiter-Glo. The test is classed as cell-based, human. As to conditions: 16 μg/mL solution added 50 μL per well, 4 days, relative to addition of no compound. How it is done: Karpas-299 cells were prepared to be 2×10^6 cells/mL in culture medium A, and were added to a 96 well microplate for cell culturing in an amount of 50 μL for each well. […] After culturing, the microplate was taken out from the incubator, and was left at rest at room temperature for 10 minutes. To each well, 50 μL of CellTiter-Glo Luminescent Cell Viability Assay (Promega) was added, and the resultant mixture was stirred.
(In ATP-based viability assays light output follows the ATP content of the culture.)

T1 sequence (P02550 whole entry): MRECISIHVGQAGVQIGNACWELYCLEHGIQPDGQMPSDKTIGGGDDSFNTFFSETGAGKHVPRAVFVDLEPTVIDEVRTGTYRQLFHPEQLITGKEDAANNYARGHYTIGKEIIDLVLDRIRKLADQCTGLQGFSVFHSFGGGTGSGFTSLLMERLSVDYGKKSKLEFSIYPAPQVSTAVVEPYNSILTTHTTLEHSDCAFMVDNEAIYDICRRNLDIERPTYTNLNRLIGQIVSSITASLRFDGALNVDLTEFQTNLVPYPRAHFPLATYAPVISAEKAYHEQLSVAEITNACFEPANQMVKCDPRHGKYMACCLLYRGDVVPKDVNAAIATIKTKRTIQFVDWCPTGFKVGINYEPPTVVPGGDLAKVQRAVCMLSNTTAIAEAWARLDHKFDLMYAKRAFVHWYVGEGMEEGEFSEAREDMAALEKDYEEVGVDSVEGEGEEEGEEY
T1 sequence (P02554 whole entry): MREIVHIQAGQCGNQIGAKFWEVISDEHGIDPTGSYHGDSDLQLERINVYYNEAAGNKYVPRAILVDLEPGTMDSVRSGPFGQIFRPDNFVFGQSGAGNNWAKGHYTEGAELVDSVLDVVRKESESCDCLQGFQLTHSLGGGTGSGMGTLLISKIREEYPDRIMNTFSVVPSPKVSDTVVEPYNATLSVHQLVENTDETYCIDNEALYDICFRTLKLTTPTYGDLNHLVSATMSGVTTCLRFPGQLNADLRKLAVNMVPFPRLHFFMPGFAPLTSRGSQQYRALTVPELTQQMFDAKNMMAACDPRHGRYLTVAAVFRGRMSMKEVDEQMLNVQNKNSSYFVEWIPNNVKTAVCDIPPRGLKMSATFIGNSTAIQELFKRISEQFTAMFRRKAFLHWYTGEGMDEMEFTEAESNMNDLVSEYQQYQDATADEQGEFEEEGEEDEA

On to `CN[C@H](C(=O)N[C@H](C(=O)N(C)[C@H](/C=C(\C)C(=O)NCCCCNC(=O)CCCCCN1C(=O)CC(SC[C@H](N)C(=O)O)C1=O)C(C)C)C(C)(C)C)C(C)(C)c1cn(C)c2ccccc12` (stereo partly drawn) [Comparative Example compound, reference compound], for which, in the test with Karpas-299 cells [1], the “Cell remaining rate (%)” value was found to be 18.1% and the “cellular toxicity (in words)” value is given as “strong cellular toxicity”. On porcine tubulin, the “Microtubule polymerization rate (%)” value amounted to 0% and the “activity for inhibiting microtubule polymerization (in words)” value is recorded as “comparable activities for inhibiting microtubule polymerization”.
Turning to `CN[C@H](C(=O)N[C@H](C(=O)N(C)[C@H](/C=C(\C)C(=O)N[C@H](CCC(=O)NCCCC[C@H](N)C(=O)O)C(=O)O)C(C)C)C(C)(C)C)C(C)(C)c1ccccc1` [Metabolite of Example ADC1], in the test with Karpas-299 cells [1], the “Cell remaining rate (%)” value is on record as 100% and the “cellular toxicity (in words)” value is reported as “weak cytotoxic activity”. On porcine tubulin, the “Microtubule polymerization rate (%)” value came to 1.7% and the “activity for inhibiting microtubule polymerization (in words)” value is listed as “comparable activities for inhibiting microtubule polymerization”.
As to Brentuximab, in the test on Karpas-299 cells [2], the “Cell remaining rate (%)” value amounted to 71.5%.

(Values after patent US12178879B2, “Hemiasterlin derivative and antibody-drug conjugate thereof” (priority 2019, dated 2024).)
